Test results as given in PMC11484861 (Nature Communications, 2024).

Tested on: SARS-CoV-2 M protein level
Assay type: cell-based, human

| Structure (SMILES) | IMβ3-5-promoted degradation of M, VP2 and PB1-F2 | decrease in M protein levels induced by SQSTM1 |
| --- | --- | --- |
| CCN(CC)CCCC(C)Nc1ccnc2cc(Cl)ccc12 (stereo not drawn) [CQ, chloroquine] | blocked | rescued |
| COC[C@H]1OC(=O)c2coc3c2[C@@]1(C)C1=C(C3=O)[C@@H]2CCC(=O)[C@@]2(C)C[C@H]1OC(C)=O [wortmannin] |  | rescued |
